According to patent US10328062B2, “Biomarkers and use of MET inhibitor for treatment of cancer” (AMGEN, INC., priority 2014, dated 2019):
Like-named read-outs stand apart in the source and are kept apart here.

Legend:
[1] = system: Malme-3M; assay: 72 hour cancer cell line viability assay (CellTiter-Glo); format: cell-based; conditions: Homo sapiens, Melanoma, MET copy number Low, focal No, 72 hour viability
Description: (§1) Human cancer cell lines were purchased from ATCC, JCRB, Sigma Aldrich or DSMZ. All cell lines were propagated in growth media per the suppliers' recommendation and maintained in 5% CO2 and 37° C.
(§2) Cancer cell line viability assays were carried out using the CellTiter-Glo Luminescent Cell Viability Assay from Promega (Madison, Wis.). Optimal cell seeding densities were determined using time lapse imaging to maximize signal window and ensure cells were not contact growth inhibited at the 72 hour time point. Cells were seeded in 96 well plates in complete growth media and allowed to adhere to the bottom of the plate by incubation at 37° C. and 5% CO2 overnight. […] Plates were incubated at 37° C. and 5% CO2 for 72 hours. Treated plates were then allowed to equilibrate to room temperature along with, CellTiter-Glo substrate and buffer solution prior to use in the viability assay. CellTiter-Glo substrate vials were reconstituted in 10 mL of buffer solution and added to assay plates in 100 μL/well volumes. Plates were shaken for 2 minutes at 700 rotations per minute with an orbit diameter of 3 mm followed by room temperature incubation for 10 minutes. Plates were then read using an Envision plate reader on luminescent setting.
(§3) Threshold for high vs low MET copy number was set at aCGH log 2 ratio of 2.5. Focal nature of MET copy number increase was defined qualitatively using tiled aCGH results for chromosome 7.

[2] = system: C32; assay: as above; format: cell-based; conditions: Homo sapiens; C32, Melanoma; MET copy number Low, focal No; 72 hour viability
Description: as §1, §2, §3

[3] = system: Hs 746T; assay: as above; format: cell-based; conditions: Homo sapiens, Hs746T, Gastric, MET copy number High, focal Yes, 72 hour viability
Description: as §1, §2, §3

[4] = system: HCC1395; assay: as above; format: cell-based; conditions: Homo sapiens; HCC1395, breast; MET copy number Low, focal No; 72 hour viability
Description: as §1, §2, §3

[5] = system: Alexander; assay: as above; format: cell-based; conditions: Homo sapiens, Liver, MET copy number Low, focal No, 72 hour viability
Description: as §1, §2, §3

[6] = system: AU-565; assay: as above; format: cell-based; conditions: Homo sapiens, AU565; AU-565, Breast; MET copy number Low, focal No; 72 hour viability
Description: as §1, §2, §3

[7] = system: EBC-1; assay: as above; format: cell-based; conditions: Homo sapiens; EBC-1, NSCLC; MET copy number High, focal Yes; 72 hour viability
Description: as §1, §2, §3

[8] = system: HOP-92; assay: as above; format: cell-based; conditions: Homo sapiens; HOP-92, NSCLC; MET copy number Low, focal No; 72 hour viability
Description: as §1, §2, §3

[9] = system: NCI-H2342; assay: as above; format: cell-based; conditions: Homo sapiens; NCI-H2342, NSCLC; MET copy number Low, focal No; 72 hour viability
Description: as §1, §2, §3

[10] = system: G-361; assay: as above; format: cell-based; conditions: Homo sapiens; G-361, Melanoma; MET copy number Low, focal No; 72 hour viability
Description: as §1, §2, §3

[11] = system: CAL-54; assay: as above; format: cell-based; conditions: Homo sapiens; CAL-54, Kidney; MET copy number Low, focal No; 72 hour viability
Description: as §1, §2, §3

[12] = system: NUGC-4; assay: as above; format: cell-based; conditions: Homo sapiens; NUGC-4, Gastric; MET copy number Low, focal Yes; 72 hour viability
Description: as §1, §2, §3

[13] = system: NCI-H1648; assay: as above; format: cell-based; conditions: Homo sapiens; NCI-H1648, NSCLC; MET copy number Low, focal Yes; 72 hour viability
Description: as §1, §2, §3

[14] = system: human HCC cell lines; assay: HCC cell proliferation assay (CellTiter-Glo, 72 h); format: cell-based
Description: All human HCC cell lines were purchased from the American Type Culture Collection (ATCC), Japanese Collection of Research Bioresources (JCRB), Korean Cell line Bank (KCLB), Shanghai Institutes of Biological Sciences (SIBS), Zhongshan Hospital Fudan University (ZHFU), and routinely cultured in 96-well plates in ATCC's recommended growth media in the temperature of 37° C., 5% CO2 and 95% humidity. […] Luminescence was measured with a PerkinElmer EnVision® plate reader. Data will not be normalized to a control compound, rather POC (percent of control). POC=(compound treated signal/DMSO treated signal)*100. POC values were processed with the software of GraphPad Prism version 5 to calculate the absolute IC50. Time 0 (T0) reported as broken line on dose response curves were shown in the curve fitting as the percent of the net T3 DMSO control.
The fluorescence in situ hybridization (FISH) analysis and immunohistochemistry (IHC) staining were used to confirm c-MET amplification and high protein expression. The six sensitive and non-sensitive cell lines were selected, including MHCC97H, HCCLM3, JHH-4, JHH-5, SNU-398 and Hep3B. MHCC97H and HCCLM3 cell lines also had high levels of total MET with strong membrane staining (IHC 3+) and MET gene amplification (MET/CEP7>2.0), which were identified as Met-positive HCC. […]

[15] = system: TPR-MET xenografts; assay: animal or person
Description: Nude mice bearing established TPR-MET xenografts were treated with Compound Mat doses of 0.1, 0.5, 0.75, 1, 2, 3, or 10 mg/kg. Three hours post dose, tumors were excised and flash frozen in liquid nitrogen. Tumors were then homogenized in lysis buffer containing protease and phosphatase inhibitors. Lysates were then processed per the SDS-PAGE and Immunoblotting protocol.
Tumors were harvested 3 hours post dose and tumor lysates prepared for analysis by SDS-PAGE and immunoblot using antibodies to phospho-Gab1 and β-actin. Phospho-Gab1 levels were quantified using a chemiluminescent imaging system.

[16] = 28-day rat toxicology study; conditions: in vivo
[17] = system: panel of 20 cancer cell lines; assay: 72 hour viability assays, sensitivity status over the panel; format: cell-based; conditions: Homo sapiens
Description: as §1
as §2, with “Plates were shaken for 2 minutes at 700 rotations per minute with an orbit diameter of 3 mm followed by room temperature incubation for 10 minutes.” left out
MET copy number for individual cell lines was determined by array comparative genomic hybridization (aCGH) and reported as log 2 ratio of cell line to pooled control DNA from 40 normal donors. […]

COCCOc1cnc2ccn([C@H](C)c3nnc4c(F)cc(-c5cnn(C)c5)cn34)c(=O)c2c1 [Compound M, 6-{(1R)-1-[8-fluoro-6-(1-methyl-1H-pyrazol-4-yl)[1,2,4]triazolo[4,3-a]pyridin-3-yl]ethyl}-3-(2-methoxyethoxy)-1,6-naphthyridin-5(6H)-one]
IC50 [1]: > 3000 nM | IC50 [2]: > 3000 nM | IC50 [3]: 3 nM | IC50 [4]: > 3000 nM | IC50 [5]: > 3000 nM | IC50 [6]: > 3000 nM | IC50 [7]: 8 nM | IC50 [8]: > 3000 nM | IC50 [9]: > 3000 nM | IC50 [10]: > 3000 nM | IC50 [11]: > 3000 nM | IC50 [12]: > 3000 nM | IC50 [13]: > 3000 nM | drug sensitivity ([14]; HCC cell lines with total c-MET IHC 2+, 1+ or 0): did not show dramatic drug sensitivity | response to Compound M ([14]; Met-positive HCC (MHCC97H, HCCLM3: IHC 3+, MET/CEP7>2.0)): significant and favorable response | inhibition at 1 mg/kg ([15]; Mus musculus, 3 h, read-out: inhibition of phospho-Gab1): > 90% | average exposure shown to inhibit c-Met activity by 90% ([15]; TPR-Met xenograft model): 0.154 µg/mL | AUC(0-t) [16]: 82400 ng·h/mL | Cmax [16]: 12300 ng/mL | IC50 ([17]; insensitive cell lines, read-out: IC50 values from the viability assay, cell lines binned as insensitive): > 3000 nM | IC50 ([17]; sensitive cell lines, read-out: IC50 values from the viability assay, cell lines binned as sensitive): 2 to 17 nM
